# Literature values in PMC9395504 (Investigational New Drugs, 2022).
# Assays:
# [1] = tested on: TP53-WT melanoma cell lines; set-up: method as in PMID 24810962; details: combined with inhibitors of PI3K or MAPK signaling pathway; cited from earlier work
# [2] = tested on: p53 pathway; details: cited from earlier work
compound,measurement,setting,value
CC(C)[C@@H](CS(=O)(=O)C(C)C)N1C(=O)[C@@](C)(CC(=O)O)C[C@H](c2cccc(Cl)c2)[C@H]1c1ccc(Cl)cc1 [AMG 232],interaction in cell death,[1],synergy
same,doses with more consistent and pronounced effect on the p53 pathway,[2],25 to 100 mg/kg
same,lowest dose affecting the p53 pathway (upregulation of p21 and MIC-1),[2]; doses as low as,5 mg/kg
